These results are taken from ChEMBL document CHEMBL1201862, “PubChem BioAssay data set” (2004).

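Compound exposure: 48 hours, 5 concentrations, 96-well plates. GI50 marks 50% less growth.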 Activity calls are given as the source filed them. No stated cut-off is given here; in the data, active = GI50 up to about 1.1 µM and inactive = higher.

Test systems include MOLT-4; NCI-H522; SF-295; TK-10; 786-0; EKVX; HCT-116; HT-29; KM12; IGROV-1; UACC-62; MDA-MB-231; HOP-92; OVCAR-8; CCRF-CEM; A498; LOX IMVI; M14; NCI-H23; HCC 2998.
What all share (assay): NCI anticancer screen, dose series, 48 h

Regarding `O=c1[nH]c(=O)n(C2OC(CO)C(O)C(O)C2O)cc1F` (stereo not given), the GI50 with MOLT-4, with NCI-H522, with SF-295, in the experiment with TK-10, with 786-0 and with EKVX was > 100 µM (inactive) each time. In addition, the GI50 in the experiment with HCT-116, in the experiment with HT-29, in the experiment on KM12, in the experiment on IGROV-1, in the experiment on UACC-62 and with MDA-MB-231 was > 100 µM (inactive) throughout. Besides, the GI50 was > 12.7 µM (inactive) in the experiment on HOP-92; > 100 µM (inactive) in the experiment on OVCAR-8; > 100 µM (inactive) with CCRF-CEM; > 100 µM (inactive) in the experiment with A498; > 100 µM (inactive) in the experiment on LOX IMVI; > 100 µM (inactive) in the experiment with M14. The GI50 in the experiment on NCI-H23 and with HCC 2998 was > 100 µM (inactive) each time.

Consider `COc1cc2cc(C(=O)N3CC(CCl)c4ccc([N+](C)(C)Cc5ccccc5[N+](=O)[O-])cc43)[nH]c2c(OC)c1OC` (stereo not given), for which the GI50 in the experiment on MOLT-4 is 0.63 µM (active); with NCI-H522, 0.198 µM (active); in the experiment with SF-295, 1.47 µM (inactive); with TK-10 it was 2.74 µM (inactive); in the experiment on 786-0 it was 1.53 µM (inactive); with EKVX it was 3.78 µM (inactive). Also, the GI50 in the experiment on HCT-116 is 1.66 µM (inactive); in the experiment with HT-29 it was 0.962 µM (active); with KM12, 2.24 µM (inactive); in the experiment with IGROV-1, 1.82 µM (inactive); with UACC-62, 1.01 µM (active); in the experiment with MDA-MB-231, 3.94 µM (inactive). Also, the GI50 was 2.21 µM (inactive) in the experiment with HOP-92; 3.44 µM (inactive) with OVCAR-8; 0.966 µM (active) with CCRF-CEM; 0.398 µM (active) in the experiment on A498; 2.31 µM (inactive) in the experiment with LOX IMVI; 1.67 µM (inactive) in the experiment with M14. In addition, the GI50 in the experiment on NCI-H23 was 0.762 µM (active); in the experiment on HCC 2998, 1.27 µM (inactive).

For the molecule `COc1ccc2nc3ccc(OC)cc3c([S+]([O-])Cc3ccc([N+](=O)[O-])cc3)c2c1` (stereo not given), the GI50 in the experiment on MOLT-4 is 1.83 µM (inactive); in the experiment with NCI-H522, 1.73 µM (inactive); with SF-295, 20.6 µM (inactive); in the experiment on TK-10 it was 5.9 µM (inactive); with 786-0 it was 2.1 µM (inactive); in the experiment with EKVX, 16.6 µM (inactive). In addition, the GI50 in the experiment on HCT-116 is 1.69 µM (inactive); in the experiment with HT-29, 2.58 µM (inactive); in the experiment with KM12 it was 18.4 µM (inactive); in the experiment on IGROV-1, 5.3 µM (inactive); in the experiment on UACC-62 it was 15.2 µM (inactive); with MDA-MB-231, 15.7 µM (inactive). Besides, the GI50 was 3.13 µM (inactive) with HOP-92; 3.39 µM (inactive) with OVCAR-8; 2.11 µM (inactive) in the experiment on CCRF-CEM; 17.3 µM (inactive) in the experiment on A498; 5.16 µM (inactive) with LOX IMVI; 7.87 µM (inactive) with M14. The values for the GI50 in the experiment with NCI-H23 and in the experiment with HCC 2998 were 6.7 µM (inactive) and 17.5 µM (inactive), respectively.

For the molecule `CC(C)CCC[C@@H](C)[C@H]1CC[C@H]2C3=C[C@H](OS(=O)(=O)O)[C@@]4(O)C[C@@H](O)CC[C@]4(C)[C@@]3(O)CC[C@]12C`, the GI50 is 42.7 µM (inactive) in the experiment with MOLT-4; > 100 µM (inactive) in the experiment with NCI-H522; > 100 µM (inactive) in the experiment with SF-295; > 100 µM (inactive) with TK-10; > 100 µM (inactive) in the experiment with 786-0; > 100 µM (inactive) with EKVX. Moreover, the GI50 was 98.9 µM (inactive) with HCT-116; 42 µM (inactive) in the experiment with HT-29; 84.5 µM (inactive) in the experiment on KM12; > 100 µM (inactive) in the experiment on IGROV-1; > 100 µM (inactive) in the experiment on UACC-62; > 100 µM (inactive) with MDA-MB-231. For the same molecule, the GI50 in the experiment with HOP-92 is > 100 µM (inactive); with OVCAR-8, > 100 µM (inactive); in the experiment with CCRF-CEM it was 49.2 µM (inactive); with A498, > 100 µM (inactive); with LOX IMVI, > 100 µM (inactive); with M14, > 100 µM (inactive). Besides, the GI50 with NCI-H23 and with HCC 2998 was > 100 µM (inactive) in each case.

As for `Cn1c(=O)c2c(nc(NCCCCl)n2CC(=O)NCCCCl)n(C)c1=O`, the GI50 in the experiment with MOLT-4, with NCI-H522, with SF-295, with TK-10, with 786-0 and in the experiment on EKVX was > 100 µM (inactive) each time. Also, the GI50 in the experiment with HCT-116, in the experiment on HT-29, in the experiment on KM12, in the experiment on IGROV-1, with UACC-62 and in the experiment with MDA-MB-231 was > 100 µM (inactive) in each case. The GI50 in the experiment on HOP-92, in the experiment on OVCAR-8, in the experiment on CCRF-CEM, in the experiment with A498, in the experiment on LOX IMVI and in the experiment with M14 was > 100 µM (inactive) each time. Besides, the GI50 in the experiment with NCI-H23 and with HCC 2998 was > 100 µM (inactive) each time.

Regarding `[O-][n+]1ccc(NO)c2ccccc21`, the GI50 in the experiment with MOLT-4 is 0.6 µM (active); with NCI-H522, 1.51 µM (inactive); in the experiment with SF-295, 0.374 µM (active); with TK-10 it was 2.02 µM (inactive); in the experiment on 786-0 it was 2.05 µM (inactive); in the experiment with EKVX, 2.21 µM (inactive). Further, the GI50 in the experiment with HCT-116 is 2.03 µM (inactive); with HT-29 it was 1.19 µM (inactive); in the experiment on KM12 it was 0.984 µM (active); in the experiment on IGROV-1 it was 1.65 µM (inactive); in the experiment with UACC-62, 1.22 µM (inactive); with MDA-MB-231, 1.32 µM (inactive). The GI50 with HOP-92 is 2.07 µM (inactive); in the experiment on OVCAR-8, 0.561 µM (active); in the experiment with CCRF-CEM, 0.492 µM (active); with A498 it was 0.673 µM (active); in the experiment on LOX IMVI, 1.45 µM (inactive); in the experiment on M14, 1.93 µM (inactive). Also, the results for the GI50 in the experiment on NCI-H23 and in the experiment with HCC 2998 were 1.58 µM (inactive) and 0.253 µM (active), respectively.
